Literature values, collected in patent US5173423A, “Process for breeding a glabrous variety of rice crop and a glabrous plant” (Sumitomo Chemical Company Limited, priority 1990, dated 1992).

Tested on: Ginbozu
Details: mutation breeding; induced variation: chlorosis; variety Ginbozu

Row | SMILES | Frequency of occurrence of variants
1 | Nc1ncc2[nH]cnc2n1 [2-AP, 2-aminopurine] | 0.57%
2 | O=c1[nH]cc(Br)c(=O)[nH]1 [5-BU, 5-bromouracil] | 1.0%
